Like-named read-outs stand apart in the source and are kept apart here.

As usually defined, the inhibition is the percentage by which the read-out fell short of the control. Low values mean little suppression, high ones strong suppression.

Test [1] deals with pERK in A375P (BRAF^V600E) cells. Nature of the test: Western blot, pERK in A375P cells. The test is classed as cell-based. The following applies: Homo sapiens, 8 nM, 1 h. On the procedure:
(§1) Cells were lysed in 25 mM Tris-HCl pH 7.5, 2 mM EDTA, 2 mM EGTA, 1% Triton X-100, 0.1% SDS, 50 mM sodium-β-glycerophosphate, 2 mM Na3VO4, 12.5 mM sodium pyrophosphate, 2× Complete EDTA-free mini protease inhibitor tablets (Roche), 2× phosphatase inhibitor cocktails I and II (Sigma-Aldrich). Protein concentrations were determined by Bio-Rad DC™ or dye-based protein assays and lysates were resolved by SDS-PAGE (Invitrogen NuPAGE®) and transferred to PVDF membranes. Membranes were blocked with Odyssey® (LI-COR Biosciences) blocking buffer and incubated with primary antibodies overnight at 4°C. Blots were washed with PBS containing 0.1% Tween-20, incubated with secondary antibodies, and washed again prior to signal detection on a LI-COR Odyssey® reader.
(§2) siRNA complexes were prepared per the manufacturer's instructions using Dharmacon RNAi duplex (Thermo Fisher Scientific), Lipofectamine™ RNAiMAX™ (Invitrogen), and Opti-MEM® (Gibco) and allowed to form at room temperature for at least 40 min. Volumes of 1 mL of RNAi complex were added to each well of a plate with 150 000 cells in complete medium (no antibiotic) and incubated at 37°C, 5% CO2 for the indicated times.
(§3) Lysates were immunoblotted for the proteins indicated.

In another test the target is T1, PKD2 (h) (Homo sapiens, UniProt Q9BZL6).
T1 construct: purchased Millipore
Nature of the test: Kinase panel (Millipore) enzyme activity. The test is classed as biochemical.

In the next test the test system is 195 tumor cell lines. Kind of test: Cell growth assay, summary over 195 tumor cell lines. The test is classed as cell-based. The conditions noted are these: Homo sapiens, read-out: gIC50. The procedure: (§4) Growth was measured with CellTiter-Glo® (Promega) reagent per the manufacturer’s protocol, using a PerkinElmer EnVision™ reader at t = 0 and 72 h. IC50 values for cell growth inhibition (gIC50) were determined.
The functional selectivity of dabrafenib was evaluated by measuring the growth of a range of human tumor cell lines of different genetic mutation status.
(§5) (PDF) Click here for additional data file.

Test [2] deals with Human Foreskin Fibroblasts (HFF, wild-type BRAF). Kind of test: Cell cycle analysis. Type of test: cell-based. The conditions noted are these: concentrations up to 10 µM. On the procedure:
(§6) Cells were permeabilized, DNA was stained with propidium iodide, and samples were read on a BD LSRII flow cytometer. Data were analyzed using the cell cycle platform of FlowJo v6.1.1 software.
(§7) Cell cycle phases are shown in stacked format as a percentage of the total population. […] (PPTX) Click here for additional data file.

In a further test the test system is BxPc3. Kind of test: Cell growth assay. The conditions noted are these: Homo sapiens, BXPC-3, 72 h; BxPc3, RAF WT, RAS WT, 3-day; read-out: gIC50. The test is classed as cell-based. Put shortly: (§8)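 Luminescent cell viability signal (CellTiter-Glo) serves as the read-out. Measurements bracket a 72 h window, with a baseline at t = 0. Values are gIC50s for inhibition of growth.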

Another test concerns PC-3. Nature of the test: Cell growth assay. The test is classed as cell-based. The conditions noted are these: Homo sapiens, 72 h; PC-3, RAF WT, RAS WT, 3-day; read-out: gIC50. Put shortly: as §8
The next test has as its system KPL-1. Nature of the test: Cell growth assay. The conditions noted are these: Homo sapiens, 72 h; KPL-1, RAF WT, RAS WT, 3-day; read-out: gIC50. Type of test: cell-based. Put shortly: as §8
In another test the test system is SK-MEL-28 cells. Nature of the test: Cell cycle analysis. The test is classed as cell-based, human. The conditions noted are these: SK-MEL-28 (BRAF^V600E), 72-hour exposure. The procedure:
as §6, §7

The next test concerns A375P cells. Kind of test: Cell cycle analysis. The conditions noted are these: A375P (BRAF^V600E), 72-hour exposure. Type of test: cell-based, human. On the procedure: as §6, §7
Test [3] relates to phospho-MEK1/2 (pMEK) in ES-2 ovarian carcinoma (BRAF^V600E) cells. Nature of the test: Western blot, pMEK in ES-2 cells. Type of test: cell-based. The conditions noted are these: Homo sapiens; ES-2 cells (BRAF^V600E), 1 h, immunoblot; read-out: IC50 for pMEK inhibition. On the procedure: as §1
Signals were quantified and used to determine IC50 values. (PPTX) Click here for additional data file.
(In western blotting, separated proteins are transferred to a membrane and probed.)

In test [4] the target is T2, BRAF (Canis lupus familiaris, UniProt A0A8I3SCX1).
T2 construct: Full-length BRAF genes were tagged with 6×His-SBP; 6xHis-SBP; made in house; host or cells: HEK293F
Kind of test: BRAF/CRAF-activated MEK ATPase coupled assay. The test is classed as biochemical. The conditions noted are these: Enzyme BRAF, Dog. On the procedure: (§9) Various BRAF orthologs (human, cynomolgus monkey, dog, rat) were cloned in-house. […] Full-length BRAF genes were tagged with 6×His-SBP and transiently transfected in a HEK293F expression system (Invitrogen K9000-01 protocol). Transfected cells were incubated at 37°C, 5% CO2 on a shaker at 80 r.p.m. for 48 h and harvested by centrifugation. BRAF proteins were purified by UltraLink®-immobilized Streptavidin affinity and Superdex™ 200 size exclusion chromatography.
(§10) N-terminal GST-tagged MEK1 was expressed in BL21[DE3]/pRR692 cells and purified by Glutathione Sepharose™ 4FF and Q-Sepharose™ chromatography. The GST tag was cleaved with TEV protease and MEK1 was purified on a Superdex™ 200 column.

Test [5] concerns the target T3, BRAF (Rattus norvegicus, UniProt A0A8I6AFV6).
T3 construct: Full-length BRAF genes were tagged with 6×His-SBP; 6xHis-SBP; made in house; host or cells: HEK293F
Kind of test: BRAF/CRAF-activated MEK ATPase coupled assay. Type of test: biochemical. The following applies: Enzyme BRAF. The procedure:
as §9, §10

Test [6] has as its target BRAF (Macaca fascicularis, UniProt A0A7N9IA21). Nature of the test: BRAF/CRAF-activated MEK ATPase coupled assay. Type of test: biochemical. The following applies: Enzyme BRAF, Cyno. On the procedure:
as §9, §10

Another test deals with HCT-116. Kind of test: Cell growth assay. The test is classed as cell-based, human. The following applies: HCT-116, RAF WT, KRAS(G13D), 3-day. On the procedure: as §4, §5
Test [7] concerns pMEK in A375P (BRAF^V600E) cells. Kind of test: Western blot, pMEK in A375P cells. Type of test: cell-based. The following applies: Homo sapiens, 8 nM, 1 h. The procedure:
as §1, §2, §3

Sequence of BRAF (Macaca fascicularis, UniProt A0A7N9IA21) (A0A7N9IA21 entry or part of it): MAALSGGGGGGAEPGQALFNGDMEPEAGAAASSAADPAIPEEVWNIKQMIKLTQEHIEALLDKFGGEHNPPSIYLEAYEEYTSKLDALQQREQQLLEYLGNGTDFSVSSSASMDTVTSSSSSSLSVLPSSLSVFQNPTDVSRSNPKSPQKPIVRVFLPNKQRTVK
T1 sequence (Q9BZL6 whole entry): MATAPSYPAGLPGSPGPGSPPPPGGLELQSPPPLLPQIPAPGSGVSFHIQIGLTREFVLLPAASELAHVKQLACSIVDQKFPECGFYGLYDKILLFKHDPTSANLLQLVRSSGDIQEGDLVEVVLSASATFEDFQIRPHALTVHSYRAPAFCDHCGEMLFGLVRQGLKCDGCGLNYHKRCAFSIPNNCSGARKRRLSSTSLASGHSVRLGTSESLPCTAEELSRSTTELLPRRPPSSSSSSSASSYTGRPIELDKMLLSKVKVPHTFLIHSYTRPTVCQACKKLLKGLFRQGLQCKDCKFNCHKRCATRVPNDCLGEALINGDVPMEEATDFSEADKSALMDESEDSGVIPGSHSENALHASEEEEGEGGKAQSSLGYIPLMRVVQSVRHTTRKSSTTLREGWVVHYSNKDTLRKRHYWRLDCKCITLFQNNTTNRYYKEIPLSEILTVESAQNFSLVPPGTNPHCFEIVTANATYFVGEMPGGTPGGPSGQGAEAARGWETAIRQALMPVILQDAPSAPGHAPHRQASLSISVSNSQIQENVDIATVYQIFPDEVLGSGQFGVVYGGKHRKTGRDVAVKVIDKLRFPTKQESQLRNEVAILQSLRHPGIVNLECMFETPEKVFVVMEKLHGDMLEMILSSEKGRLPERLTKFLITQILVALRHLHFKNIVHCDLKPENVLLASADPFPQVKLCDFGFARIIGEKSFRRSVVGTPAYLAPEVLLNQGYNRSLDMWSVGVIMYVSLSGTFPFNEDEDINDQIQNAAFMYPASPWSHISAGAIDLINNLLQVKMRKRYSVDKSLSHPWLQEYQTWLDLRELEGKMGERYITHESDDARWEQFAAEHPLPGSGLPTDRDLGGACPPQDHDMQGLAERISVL
T3 sequence (A0A8I6AFV6 1-804): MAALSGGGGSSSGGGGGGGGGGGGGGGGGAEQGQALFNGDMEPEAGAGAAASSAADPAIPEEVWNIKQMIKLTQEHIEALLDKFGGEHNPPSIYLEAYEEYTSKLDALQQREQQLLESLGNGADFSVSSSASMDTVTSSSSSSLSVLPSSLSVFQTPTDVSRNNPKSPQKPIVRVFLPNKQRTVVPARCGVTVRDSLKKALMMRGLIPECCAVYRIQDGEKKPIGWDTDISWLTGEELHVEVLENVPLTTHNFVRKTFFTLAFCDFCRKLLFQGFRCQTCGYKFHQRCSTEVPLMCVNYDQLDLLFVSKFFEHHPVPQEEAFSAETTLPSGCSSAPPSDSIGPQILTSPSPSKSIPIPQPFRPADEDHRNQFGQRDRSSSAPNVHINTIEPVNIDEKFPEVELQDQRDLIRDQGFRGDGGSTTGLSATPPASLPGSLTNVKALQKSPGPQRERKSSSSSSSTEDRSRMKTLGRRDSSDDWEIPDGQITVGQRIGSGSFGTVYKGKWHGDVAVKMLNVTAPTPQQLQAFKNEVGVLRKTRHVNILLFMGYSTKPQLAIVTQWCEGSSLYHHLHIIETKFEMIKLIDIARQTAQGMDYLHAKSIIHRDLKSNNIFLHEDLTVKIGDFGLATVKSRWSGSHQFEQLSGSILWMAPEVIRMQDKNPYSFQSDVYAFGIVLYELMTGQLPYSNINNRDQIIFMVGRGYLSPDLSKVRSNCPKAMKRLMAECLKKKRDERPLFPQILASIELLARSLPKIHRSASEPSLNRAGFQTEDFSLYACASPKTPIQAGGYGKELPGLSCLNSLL
T2 sequence (A0A8I3SCX1 1-803): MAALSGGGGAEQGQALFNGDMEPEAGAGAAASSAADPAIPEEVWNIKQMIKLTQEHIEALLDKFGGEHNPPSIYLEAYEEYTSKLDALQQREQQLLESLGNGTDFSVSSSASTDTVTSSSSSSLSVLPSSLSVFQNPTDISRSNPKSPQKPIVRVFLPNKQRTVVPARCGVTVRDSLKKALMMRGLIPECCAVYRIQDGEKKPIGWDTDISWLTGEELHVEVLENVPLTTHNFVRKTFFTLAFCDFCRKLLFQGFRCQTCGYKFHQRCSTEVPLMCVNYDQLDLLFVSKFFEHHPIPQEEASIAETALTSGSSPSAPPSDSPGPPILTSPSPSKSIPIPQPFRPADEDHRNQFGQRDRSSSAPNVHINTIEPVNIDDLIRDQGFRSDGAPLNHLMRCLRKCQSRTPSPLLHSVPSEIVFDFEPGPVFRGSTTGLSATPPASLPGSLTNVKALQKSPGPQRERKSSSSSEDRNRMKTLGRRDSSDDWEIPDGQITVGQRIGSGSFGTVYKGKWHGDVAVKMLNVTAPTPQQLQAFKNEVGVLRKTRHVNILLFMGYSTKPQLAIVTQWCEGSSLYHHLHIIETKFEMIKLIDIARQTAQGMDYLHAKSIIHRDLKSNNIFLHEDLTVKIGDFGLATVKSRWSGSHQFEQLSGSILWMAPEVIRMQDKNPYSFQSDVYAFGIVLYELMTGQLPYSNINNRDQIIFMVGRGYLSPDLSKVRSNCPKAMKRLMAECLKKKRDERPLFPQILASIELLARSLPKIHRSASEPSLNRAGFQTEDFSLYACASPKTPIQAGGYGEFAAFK

For `CC(C)(C)c1nc(-c2cccc(NS(=O)(=O)c3c(F)cccc3F)c2F)c(-c2ccnc(N)n2)s1` [dabrafenib], the inhibition at 0.008 µM in [1] and in [7] was more than 90% in each case. Also, the IC50 is 57 nM at PKD2 (h); more than 10000 nM in the test on 195 tumor cell lines (133 (88%) of the 152 RAS/RAF wild-type and all 18 mutant RAS cell lines); more than 2000 nM in the test with 195 tumor cell lines (A673, 3 of the BRAF^V600E cell lines (GCT, RKO, A673)); less than 200 nM with 195 tumor cell lines (sixteen (80%) of the 20 cell lines encoding BRAF^V600E); more than 10000 nM in the test with BxPc3; more than 10000 nM with PC-3. Also, the IC50 with KPL-1 was more than 10000 nM; in test [3], 6 nM; against BRAF [4], 4 nM; at BRAF [5], 4 nM; on BRAF [6] (read-out: IC50), 4 nM; on BRAF [6] (read-out: pIC50 +/- std. dev. (converted)), 3.98 nM. Also, in the test with HCT-116 (Homo sapiens, 72 h, read-out: gIC50), the IC50 is more than 10000 nM. Also, the “effect on cell cycle” value is “unaffected” in test [2], “arrested the BRAF^V600E cells at the G1 (2n DNA) phase of the cell cycle” with SK-MEL-28 cells and “arrested the BRAF^V600E cells at the G1 (2n DNA) phase of the cell cycle” in the test on A375P cells. In addition, the gIC50 entry in the test on HCT-116 is listed as “insensitive”.

These data come from article PMC3701070 (PLoS ONE, 2013).
